According to US6656916B1, “Glucocorticoid enhancement of gene expression” (Research Development Foundation, priority 1995, dated 2003):
“Also recorded” adds a separate entry of the source. Like-named read-outs stand apart in the source and are kept apart here.

Key:
A549 cells [1] = assay: β-galactosidase (CPRG microtiter) activity in A549 cells transfected with reporter plasmid-cationic lipid; assay type: cell-based, human; details: for β-gal expression over untreated cells: 10^−6 M beclomethasone 4 hours; for βgal activity versus medium treated, transfected cells: then beclomethasone 4 hours prior to transfection
primary rat lung cells = assay: β-gal activity in primary rat lung cells transfected with pCMVβgal-DMRIE/DOPE; assay type: cell-based
A549 cells [2] = assay: X-gal staining, count of stained transfected A549 cells; assay type: cell-based, human; details: BEC 10^−6 M 4 hours, DNA-DMRIE/DOPE, 48 hours, stained cells in 1×1 cm^2 area
Method: All transfections were performed in OPTIMEM (GIBCO-Life Technologies). One μg of pCMVβ gal was combined with 4 μg of DMRIE/DOPE or 3 μg of DOSPA/DOPE in 1 ml of OPTIMEM and incubated for 15 minutes at room temperature. Cell monolayers were washed twice in serum-free medium then overlaid with 1 ml of transfection mixture and incubated for 2.5 hours at 37° C. in a humidified, 5% CO2. DNA-liposome overlay was replaced with DMEM plus 10% FBS and cells were incubated for 48 hours. Cell lysates were harvested and assayed for total protein according to the manufacturer's instructions (BCA assay, Pierce Chemical, Rockfield, Ill.) and β -galactosidase activity was determined using a Chlorophenored-β-D-galactopyranoside colorimetric microtiter assay as described (CPRG) assay (Boerhinger-Mannheim, Germany). […]
For stained cells, duplicate cell cultures of A549 cells were treated for 4 hours with beclomethasone dipropionate or medium only, then transfected with pCMVβgal using DMRIE/DOPE. At 48 hours, one set of cultures was lysed and βgal activity determined while the other set was fixed with neutral buffered formalin and stained with β-gal (duplicate wells for each treatment). Stained cells were counted in a 1×1 cm^2 area.

A549 cells [3] = assay: 3H-thymidine-labeled pCMVβgal plasmid-lipid uptake; assay type: cell-based, human; details: several concentrations, 4 hours pretreatment, uptake at 2 hours
Method: A549 cells were pretreated with medium or beclomethasone at the dose specified for 4 hours, then transfected with ^3H-thymidine-labeled pCMVβgal. Two hours post-transfection, cells were washed, lightly trypsinized and pelleted by centrifugation. Pellets were then lysed, resuspended, and liquid scintillation cocktail added. ^3H-thymidine-labeled pCMVβgal uptake (CPM) per sample was determined. Results represent the average and standard deviation from 4 experiments and each experimental point was performed in duplicate. Fold-change=CPM beclomethasone-pretreated/CPM medium pretreated.
^3H-thymidine-labeled pCMVβgal plasmid was prepared by adding 1 mCi of ^3H-TdR (^3H-TdR, 74GBq/mmol, Amersham) to a 25 ml overnight culture of pCMVβgal-transformed DH5α strain of Escherichia coli. Labeled plasmid was isolated using Qiagen tip columns (100 μg size, Chatsworth, Calif.) per manufacturer's instructions. Saturable binding of the labeled DNA was determined as follows. Serial dilutions, from 1 μg-0.125 μg of ^3-H-TdR-labeled DNA was added to A549 cells and incubated for either 2, 6 or 24 hours. […] Pellets were lysed in 100 μl of lysis buffer (0.1 M TRIS and 0.5% Triton X-100), liquid scintillation cocktail added (BCS, Amersham) and ^3H-plasmid label quantitated by liquid scintillation. […] Uptake was determined as described above.

A549 cells [4] = assay: β-gal mRNA levels by RNA-specific PCR (RS-PCR); assay type: cell-based, human
Method: A549 cells were treated with 10^-6 M beclomethasone or medium for 4 hours. Cells were transfected with 1 μg/ml pCMVβgal plus 4 μg/ml DMRIE/DOPE. At times specified (hours) after transfection, total RNA was harvested, converted to cDNA and specific βgal messages amplified by RS-PCR as described below. RS-PCR samples were resolved on a 1% TAE agarose gel and transferred to nylon filter. Filter was hybridized to a ^32P-labeled βgal probe. Filter was analyzed by betascanner and bands of the appropriate size counted. Fold-change=βgal CPM in beclomethasone treated cells/βgal. CPM in medium-treated cells. […] Briefly, cells were pre-treated with beclomethasone at 10^-6 M and transfected as described above. After the incubation was complete, cells were lysed using acidified guanidinium isothiocyante (Fluka Chemical), containing 0.75 M sodium citrate and 1% sarkosyl. RNA was harvested using the RNAeasy system (Qiagen, Chatsworth, Calif.). Total RNA quantity was determined by A260 and, 0.5 μg of the RNA was run on a gel to determine RNA integrity. Using 0.3 μg of total RNA, cDNAs were prepared using MMLV reverse transcriptase (GIBCO, Life Technologies), substituting primer […] […] One μl of cDNA was spotted to duplicate nitrocellulose filters and counted by LSC. […] Blots were evaluated on a Betagen betascanner and CPM for bands of the correct size were determined.

[5] = various doses, 4 hours prior to transfection with pCMVβ gal or pSVβ using DMRIE/DOPE

CC1(C)O[C@@H]2C[C@H]3[C@@H]4C[C@H](F)C5=CC(=O)C=C[C@]5(C)[C@H]4[C@@H](O)C[C@]3(C)[C@]2(C(=O)CO)O1 [FLUN, flunisolide]
Degree of β-gal enhancement compared with the other glucocorticoids (A549 cells [1]; 10^−6 M, 4 hours prior to transfection): less of an enhancing effect | Enhancement of β-gal activity by other topical glucocorticoids (FIG. 2B) (A549 cells [1]; 10^−6 M, 4 hours prior to transfection, pCMVβgal-DMRIE/DOPE): enhanced β-gal activity

CC(C)CCC[C@@H](C)[C@H]1CC[C@H]2[C@@H]3CC=C4C[C@@H](O)CC[C@]4(C)[C@H]3CC[C@]12C [cholesterol]
Enhancement of β-gal / reporter gene expression by other steroids (A549 cells [1]; [5]): Enhancement of β-gal was only seen in the beclomethasone treated cells; also recorded: did not enhance reporter gene expression

cyclosporine A
Reversal/enhancement of reporter gene expression by another immunosuppressant (A549 cells [1]; cells pre-treated with cyclosporine A, cell type not stated): this effect was not seen; also recorded: the effect was not seen

CC(=O)[C@H]1CC[C@H]2[C@@H]3CCC4=CC(=O)CC[C@]4(C)[C@H]3CC[C@]12C [progesterone]
Enhancement of β-gal / reporter gene expression by other steroids (A549 cells [1]; [5]): Enhancement of β-gal was only seen in the beclomethasone treated cells; also recorded: did not enhance reporter gene expression

Interleukin-1β [IL-1β]
β-gal activity relative to medium treated cells (A549 cells [1]; 100 U/ml IL-1β or 0.5 μg/ml lipopolysacchride for 4 hours before transfection with pCMVβgal-DMRIE/DOPE): decreased β-gal activity significantly; also recorded: suppressed the degree of β-gal expression

CCC(=O)OCC(=O)[C@@]1(OC(=O)CC)[C@@H](C)C[C@H]2[C@@H]3CCC4=CC(=O)C=C[C@]4(C)[C@@]3(Cl)[C@@H](O)C[C@@]21C [beclomethasone, beclomethasone dipropionate]
Enhancement of β-gal activity (A549 cells [1]; 5×10^−7 M to 10^−6 M, 4 hours prior to transfection, pCMVβgal-DMRIE/DOPE): 2-4 fold | Minimum beclomethasone exposure required to see enhanced β-gal transfection (A549 cells [1]; 10^−6 M): 3 to 4 h | β-gal expression over untreated cells (A549 cells [1]; then IL-1β 4 hours prior to transfection): 2 fold | β-gal expression over untreated cells (A549 cells [1]; then lipopolysacchride 4 hours prior to transfection): 2 fold | Beclomethasone-mediated enhancement of β-gal activity in presence of CHX (A549 cells [1]; 10^−6 M beclomethasone + CHX 10 μg/ml, 4 hours): even greater in the presence of CHX | Enhancement of β-gal activity (FIG. 3) (A549 cells [1]; 10^−6 M beclomethasone only, 4 hours): 2.5 fold | Pre-treatment time at which enhanced β-gal activity was maximized (A549 cells [1]; 10^−6 M, remained maximal for the 24 hours monitored): ≤ 8 h | Enhancement of β-gal activity (A549 cells [1]; 10^−7 M, 4 hours prior to transfection, pCMVβgal-DMRIE/DOPE): only slight enhancement | FOLD-CHANGE, βGAL ACTIVITY (A549 cells [1]; BEC 10^−6 M 4 hours, DNA-DMRIE/DOPE, 48 hours): 3 | βgal activity versus medium treated, transfected cells (A549 cells [1]; IL-1β 4 hours first): augmented βgal activity above what was seen in medium treated, transfected cells | Concentration producing maximal enhanced reporter gene activity (A549 cells [1]; alternate lipid, promoter or reporter): 5×10^−7 to 10^−6 M | βgal activity versus medium treated, transfected cells (A549 cells [1]; lipopolysacchride 4 hours first): augmented βgal activity above what was seen in medium treated, transfected cells | β-gal expression with alternate cationic lipid (A549 cells [1]; pCMVβgal and DOSPA/DOPE (FIG. 5A)): also enhanced | β-gal enhancement with SV40 promoter vector (A549 cells [1]; pSVβ-DMRIE/DOPE (FIG. 5B)): enhancement was observed | Effectiveness of 10^−6 M compared with 10^−7 M (primary rat lung cells; 10^−6 M): less effective than was 10^−7 M | βgal activity, beclomethasone pretreatment followed by lipopolysacchride stimulation (primary rat lung cells; 4 hours beclomethasone + 4 hours lipopolysacchride): restored βgal activity to that of the medium pre-treated cells | Concentration of optimum enhancement in βgal activity (primary rat lung cells; 4 hours pretreatment): 10^−7 M | Enhancement of β-gal activity (primary rat lung cells; 4 hours pretreatment, pCMVβgal-DMRIE/DOPE, composite of several rat cell preparations): 2 fold | FOLD-CHANGE, X-GAL STAINING (A549 cells [2]): 1.5 ± 0.7 | Uptake of radiolabeled plasmid (A549 cells [3]): does not appear to enhance uptake | Steady-state β-gal mRNA levels versus medium-treated cells (A549 cells [4]; T=3 and T=24 hours, 10^−6 M): definite increase in steady-state m RNA levels | β-gal mRNA induction (A549 cells [4]; T=2 hours after transfection, 10^−6 M 4 hours pretreatment): 18 fold

C[C@]12CC[C@@H]3c4ccc(O)cc4CC[C@H]3[C@@H]1CC[C@@H]2O [estrogen, estradiol]
Enhancement of β-gal / reporter gene expression by other steroids (A549 cells [1]): Enhancement of β-gal was only seen in the beclomethasone treated cells; also recorded: did not enhance reporter gene expression

C[C@@H]1C[C@@H]([C@H](O)CC2CC(=O)NC(=O)C2)C(=O)[C@@H](C)C1 [CHX, cycloheximide]
β-gal activity in control cells with protein synthesis inhibitor (A549 cells [1]; CHX 10 μg/ml, 30 minutes + 4 hours): moderately suppressed the β-gal activity
